We go through five compounds from publication PMC4361741 (Journal of psychopharmacology (Oxford, England), 2012).

Where a name gives a salt, the structure may show the parent alone.

One assay deals with human κ-receptor (Homo sapiens, UniProt P41145). Description: [3H]-diprenorphine competitive binding assay, CHO-κ cell membranes. The settings on record: from Ki values, Table 1.
Assay [1] relates to CD-1 mice. Put plainly: Elevated-plus maze. It counts as in vivo.
In assay [2] the test system is CD-1 mice. Description: Light dark box. It counts as in vivo. The settings on record: 8 and 15 d post-injection; diazepam 1 mg/kg 30 min prior.
Assay [3] relates to CD-1 mice. Description: Tail suspension test. Type of assay: in vivo. The settings on record: pilot studies, fluoxetine 10 mg/kg; control 6.9 ± 0.7 N.
In assay [4] the test system is CD-1 mice. Description: Sucrose consumption test. The settings on record: fluoxetine 10 mg/kg, vs saline-treated controls.
Assay [5] relates to CD-1 mice. Put plainly: Forced swim test. Type of assay: in vivo.
The target in assay [6] is κ-receptors (Cavia porcellus, UniProt P41144). Description: Isolated guinea-pig ileum, U50,488 concentration-response curves.
In a further assay the target is δ-receptor (Rattus norvegicus, UniProt P33533). Put plainly: [3H]-diprenorphine competitive binding assay, C6-δ cell membranes.
Assay [7] deals with κ-receptors. The settings on record: single injection, ref Endoh et al., 1992, Jones and Holtzman; cited from earlier work.
The next assay relates to Wistar rats. Put plainly: κ-agonist. Type of assay: in vivo. The settings on record: 1 mg/kg.
The next assay has as its system rat. The settings on record: 20mg/kg; ref Wiley et al., 2009; cited from earlier work.
Assay [8] concerns CD-1 mice. Description: Warm water tail-withdrawal test, block of U50,488-induced antinociception. The settings on record: U50,488 10 mg/kg, single injection. Type of assay: in vivo.
The subject of the next assay is rats. The settings on record: ref Wiley et al., 2009; cited from earlier work.
The next assay deals with μ-receptors. Put plainly: Isolated guinea-pig ileum, DAMGO concentration-response curves. The settings on record: agonist at maximal doses.
[9] abbreviates: diazepam 1 mg/kg 30 min prior to test, each test day.

For `NC(N)=Nc1ccc2[nH]c3c(c2c1)C[C@@]1(O)[C@H]2Cc4ccc(O)c5c4[C@@]1(CCN2CC1CC1)[C@H]3O5` [GNTI, 5’-guanidinonaltrindole], the “κ-selectivity vs. δ” value at human κ-receptor was around 4.

With `CN1C(=O)CN=C(c2ccccc2)c2cc(Cl)ccc21` [diazepam], in the assay with CD-1 mice [1] (setting [9]), the “EPM entries into the open arms” value was “significantly increased” and the “EPM time spent in the open arms” value is recorded as “significantly increased”. Moreover, the “LDB time spent in the lit compartment” value in the assay on CD-1 mice [2] is on record as “significantly different from saline treated controls”.

In the assay on CD-1 mice [3], `CNCCC(Oc1ccc(C(F)(F)F)cc1)c1ccccc1` (centres unmarked) [fluoxetine, fluoxetine hydrochloride] gave a TST average force of 7.7 ± 0.5 N. In addition, the “increase in sucrose consumption” value in the assay on CD-1 mice [4] was determined as 40%. The “FST time spent immobile” value in the assay on CD-1 mice [5] (fluoxetine 10 mg/kg 30 min prior, days 6 and 13) is “decreased the time spent immobile”.

With `Oc1ccc2c3c1O[C@H]1c4[nH]c5c(c4C[C@@]4(O)[C@@H](C2)N(CC2CC2)CC[C@]314)C[C@@]1(O)[C@H]2Cc3ccc(O)c4c3[C@@]1(CCN2CC1CC1)[C@H]5O4` [norBNI, Norbinaltorphimine], the “reversibility of κ-antagonist effect on washout” value at κ-receptors [6] was “reversed on washout”. Further, the “effect on U50,488 Emax” value on κ-receptors [6] (increasing antagonist concentrations) is “without significant affect on Emax”. Further, at κ-receptors [6] (vs U50,488, n=4 tissues), the “pA2 Schild plot (+ 95% CI), κ” value stood at 8.30. In addition, in the assay with CD-1 mice [1] (7 d post-injection), the “EPM number of entries into the open arms” value is on record as “significantly increased” and the “EPM time spent in the open arms” value is listed as “significantly increased the time spent”. For the same compound, the “EPM time spent in the open arms” value in the assay with CD-1 mice [1] (14 d post-injection, 1 and 10 mg/kg) is “significantly increased the time spent in the open arms”. The compound also returned a Ki at δ-receptor of 460 ± 90 pM. Besides, in the assay on κ-receptors [7], the “time maximal levels maintained” value is 7 to 10 days, the “time of peak effects post-administration” value is ~ 24 h and the “time of returning to control levels” value was 3–4 weeks. Moreover, in the assay on Wistar rats (8 d post-treatment), the “reduction of U50,488-evoked diuresis” value is reported as “about 30%”. Further, the “reduction of U50,488-evoked diuresis” value in the assay with Wistar rats (15 d post-treatment) was “maintained at 15 d post-treatment”. Also, the “duration of antidepressant-like effects in the rat FST” value in the assay with rat is “up to 4 wks post-injection”. Besides, the “effect on antinociceptive effects of U50,488 (overall)” value in the assay with CD-1 mice [8] is “significantly reduced the antinociceptive effects of U50,488”. In addition, in the assay with rats, the “effect on sucrose (0.5%) consumption” value is recorded as “had no effect on sucrose (0.5%) consumption” and the “reversal of the effects of U50,488 on sucrose consumption” value is “did reverse the effects of U50,488”. Also, the “FST time spent immobile” value in the assay on CD-1 mice [5] (6 and 13 d post-injection of antagonist) was “significantly decreased the time spent immobile”. For the same compound, in the assay with CD-1 mice [5] (single injection), the “behavioural effects in the FST still apparent, time post-injection” value was “up to 13 days post-injection”.

Take DAMGO: the “inhibition of electrically-evoked twitches” value with μ-receptors is listed as ~ 90%.

As usually defined, the Ki is the dissociation constant of the complex between target and ligand, obtained from inhibition or displacement.
